Reference: patent US10836770B2, “Imidazopyridazine compounds useful as modulators of IL-12, IL-23 and/or INF alpha responses” (priority 2016, dated 2020)

Key:
[1] = test system: IL-23-stimulated Kit225 T cells with STAT-dependent luciferase reporter; test: Kit225 T cell assay, IL-23 stimulated STAT-dependent luciferase reporter; format: cell-based, human; settings: Homo sapiens, KIT225, read-out: IL-23 Kit225 Reporter, LE (IC50, uM)
Description: (§1) Kit225 T cells with a stably-integrated STAT-dependent luciferase reporter were plated in RPMI (GIBCO) containing 10% heat-inactivated FBS (GIBCO) and 100 U/mL PenStrep (GIBCO). The cells were then stimulated with either 20 ng/mL human recombinant IL-23 or 200 U/mL human recombinant IFNα (PBL InterferonSource) for 5-6 hours. Luciferase expression was measured using the STEADY-GLO® Luciferase Assay System (PROMEGA®) according to the manufacturer's instructions.

[2] = target: T1, recombinantly expressed His-tagged protein corresponding to amino acids 575-869 of human Tyk2 (Homo sapiens, UniProt P29597); test: Probe displacement assay (scintillation proximity, radiolabeled probe); format: binding
T1 construct: made in house
T1 sequence (P29597 with tags, fused parts or gaps): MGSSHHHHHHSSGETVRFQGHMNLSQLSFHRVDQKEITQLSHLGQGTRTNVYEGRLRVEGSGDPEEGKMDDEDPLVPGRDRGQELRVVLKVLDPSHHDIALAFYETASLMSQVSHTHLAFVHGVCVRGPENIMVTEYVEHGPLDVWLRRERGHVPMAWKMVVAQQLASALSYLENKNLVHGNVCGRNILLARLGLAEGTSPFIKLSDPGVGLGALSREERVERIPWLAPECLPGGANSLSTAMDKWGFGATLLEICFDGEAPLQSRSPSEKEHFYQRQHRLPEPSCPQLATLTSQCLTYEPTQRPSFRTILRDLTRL
Description: The probe displacement assay is conducted as follows: In a […], test compounds along with recombinantly expressed His-tagged protein corresponding to amino acids 575-869 of human Tyk2 (sequence shown below) at 2.5 nM, 40 nM ((R)—N-(1-(3-(8-methyl-5-(methylamino)-8H-imidazo[4,5-d]thiazolo[5,4-b]pyridin-2-yl)phenyl)ethyl)-2-([^3H]methylsulfonyl)benzamide) (preparation described below) and 80 μg/mL Copper His-Tag scintillation proximity assay beads (Perkin Elmer, Catalog #RPNQ0095) in 50 mM HEPES, pH 7.5, containing 100 μg/mL bovine serum albumin and 5% DMSO were incubated for 30 minutes at room temperature. […] The IC50 value is defined as the concentration of test compound required to inhibit radiolabeled probe binding by 50%.
Protein Sequence of recombinant Hig-tagged Tyk2 (575-869):
The preparation of radiolabeled probe, (R)—N-(1-(3-(8-methyl-5-(methylamino)-8H-imidazo[4,5-d]thiazolo[5,4-b]pyridin-2-yl)phenyl)ethyl)-2-([^3H]methylsulfonyl)benzamide, was performed as described below: […]

[3] = test system: IFNα-stimulated Kit225 T cells with STAT-dependent luciferase reporter; test: Kit225 T cell assay, IFNα stimulated STAT-dependent luciferase reporter; format: cell-based, human; settings: Homo sapiens, KIT225, read-out: IFNa Kit225 Reporter, LE (IC50, uM)
Description: as §1

SMILES	IC50 [1] [µM]	EC50 [2] [nM]	IC50 [3] [µM]
CNc1cc(Nc2cc(C(=O)Nc3ccccc3)nn2C)nn2c(C(=O)NC3CC3)cnc12 [Example 40]	12.5	80	12.5
[2H]C([2H])([2H])NC(=O)c1occc1Nc1cc(NC)c2ncc(C(=O)NC3CC3)n2n1 [Example 53]	0.06	2.82	0.07
CCNC(=O)c1nn(C)cc1Nc1cc(NC)c2ncc(C(=O)NC3CC3)n2n1 [Example 20]	1.12	30	0.81
CNc1cc(Nc2cnn(C)c2C(=O)O)nn2c(C(=O)NC3CC3)cnc12 [Example 37, 4-((3-(cyclopropylcarbamoyl)-8-(methylamino)imidazo[1,2-b]pyridazin-6-yl)amino)-1-methyl-1H-pyrazole-5-carboxylic acid]	2.34	50	1.39
CNC(=O)c1cn(C)nc1Nc1cc(NC)c2ncc(C(=O)NC3CC3)n2n1 [Example 35, N-cyclopropyl-6-((1-methyl-4-(methylcarbamoyl)-1H-pyrazol-3-yl)amino)-8-(methylamino)imidazo[1,2-b]pyridazine-3-carboxamide]	1.09	4.83	0.47
CNc1cc(Nc2cn(C)nc2C(=O)Nc2cccc(F)c2)nn2c(C(=O)NC3CC3)cnc12 [Example 21]	0.24	50	0.5
CCn1cc(Nc2cc(NC)c3ncc(C(=O)NC4CC4)n3n2)c(C(=O)Nc2cncnc2)n1 [Example 29]	0.24	100	1.04
CNc1cc(Nc2cn(C)nc2C(=O)NCC(C)C)nn2c(C(=O)NC3CC3)cnc12 [Example 17]	0.16	40	0.49
CCNC(=O)c1nscc1Nc1cc(NC)c2ncc(C(=O)NC(CO)CO)n2n1 [Example 74]	0.07	7.25	0.02
CNc1cc(Nc2cn(C)nc2C(=O)NC(C)C)nn2c(C(=O)NC3CC3)cnc12 [Example 9]	0.65	30	0.48
[2H]C([2H])([2H])NC(=O)c1nscc1Nc1cc(NC)c2ncc(C(=O)NCc3nccs3)n2n1 [Example 70]	0.42	20	0.11
[2H]C([2H])([2H])NC(=O)c1sccc1Nc1cc(NC)c2ncc(C(=O)NC3CC3)n2n1 [Example 47]	0.06	5.13	0.05
CNc1cc(Nc2cn(C)nc2C(=O)Nc2ccc3ncsc3c2)nn2c(C(=O)NC3CC3)cnc12 [Example 24]	0.28	8.4	0.34
[2H]C([2H])([2H])NC(=O)c1sccc1Nc1cc(NC)c2ncc(C(=O)NCCO)n2n1 [Example 49]	0.27	40	0.26
CNc1cc(Nc2c[nH]nc2C(=O)Nc2cccnc2)nn2c(C(=O)NC3CC3)cnc12 [Example 33]	1	30	5.82
CNc1cc(Nc2ccoc2C(=O)Nc2cccnc2)nn2c(C(=O)NC3CC3)cnc12 [Example 58]	0.15	3.61	0.11
CNc1cc(Nc2sc(C)nc2C(=O)NC(C)C)nn2c(C(=O)NC3CC3)cnc12 [Example 85]	0.256	26.7	0.224
CNc1cc(Nc2csnc2C(=O)N[C@@H]2C[C@@H]2F)nn2c(C(=O)NC3CC3)cnc12 [Example 64]	0.08	1.99	0.06
[2H]C([2H])([2H])NC(=O)c1nscc1Nc1cc(NC)c2ncc(C(=O)NC3CCC3)n2n1 [Example 67]	0.47	40	0.23

SMILES	IC50 [1] [µM]	EC50 [2] [nM]	IC50 [3] [µM]
CNc1cc(Nc2scnc2C(=O)NC(C)C)nn2c(C(=O)NC3CC3)cnc12 [Example 81]	0.3	3.24	0.31
CNC(=O)c1nc(C)sc1Nc1cc(NC)c2ncc(C(=O)NC3CC3)n2n1 [Example 84, 5-((3-(cyclopropylcarbamoyl)-8-(methylamino)imidazo[1,2-b]pyridazin-6-yl)amino)-N,2-dimethylthiazole-4-carboxamide]	0.11	4.51	0.18
CNc1cc(Nc2ccsc2C(=O)NC(C)C)nn2c(C(=O)NC3CC3)cnc12 [Example 44]	0.14	10	0.07
CNc1cc(Nc2cn(C)nc2C(=O)Nc2ccc(OC)cc2)nn2c(C(=O)NC3CC3)cnc12 [Example 12]	0.12	7.59	0.11
CNc1cc(Nc2scnc2C(=O)Nc2cccnc2)nn2c(C(=O)NC3CC3)cnc12 [Example 83]	0.16	10	1.76
CNc1cc(Nc2cn(C)nc2C(=O)Nc2cncnc2)nn2c(C(=O)NC3CC3)cnc12 [Example 8]	0.26	7.67	0.22
CNc1cc(Nc2cn(C)nc2C(=O)Nc2cc(C)c(C)nn2)nn2c(C(=O)NC3CC3)cnc12 [Example 7]	0.32	20	0.19
CNc1cc(Nc2c[nH]nc2C(=O)Nc2ccc(OC)nc2)nn2c(C(=O)NC3CC3)cnc12 [Example 34]	0.58	2.47	0.81
CCNC(=O)c1ncsc1Nc1cc(NC)c2ncc(C(=O)NC3CC3)n2n1 [Example 79]	0.32	20	0.15
CNc1cc(Nc2ccoc2C(=O)Nc2ccc(OC)nc2)nn2c(C(=O)NC3CC3)cnc12 [Example 55]	0.06	2.87	0.03
[2H]C([2H])([2H])NC(=O)c1nscc1Nc1cc(NC)c2ncc(C(=O)NCCOC)n2n1 [Example 69]	0.05	2.29	0.01
CCNC(=O)c1nscc1Nc1cc(NC)c2ncc(C(=O)NCc3nccs3)n2n1 [Example 75]	3.31	10	2.29
CNC(=O)c1ncsc1Nc1cc(NC)c2ncc(C(=O)NC3CC3)n2n1 [Example 78, 5-((3-(cyclopropylcarbamoyl)-8-(methylamino)imidazo[1,2-b]pyridazin-6-yl)amino)-N-methylthiazole-4-carboxamide]	0.12	10	0.26
CCNC(=O)c1occc1Nc1cc(NC)c2ncc(C(=O)NC3CC3)n2n1 [Example 52]	0.1	6.73	0.06
CNc1cc(Nc2cn(C)nc2C(=O)Nc2ccccc2F)nn2c(C(=O)NC3CC3)cnc12 [Example 25]	0.13	8.89	0.19
CNC(=O)c1occc1Nc1cc(NC)c2ncc(C(=O)NC3CC3)n2n1 [Example 51, N-cyclopropyl-8-(methylamino)-6-((2-(methylcarbamoyl)furan-3-yl)amino)imidazo[1,2-b]pyridazine-3-carboxamide]	0.05	3.79	0.04
CNc1cc(Nc2csnc2C(=O)Nc2ccccc2)nn2c(C(=O)NC3CC3)cnc12 [Example 60]	0.211	2.69	0.0662
CNc1cc(Nc2cn(C)nc2C(=O)NCCCN(C)C)nn2c(C(=O)NC3CC3)cnc12 [Example 18]	0.47	50	0.77
